Results: US20120053119A1, “THERAPEUTIC METHOD FOR INCREASING PANCREATIC BETA CELL MASS” (priority 2009, published 2012)

Assays:
Assay type in all cases: cell-based
[1] = system: MIN6 cells; test: Thapsigargin-induced apoptosis, Western immunoblot of cleaved caspase-3 and cleaved PARP; details: SDF-1 10 nM with thapsigargin 1 microM, 16 h
Protocol: FIG. 6. Inhibition of apoptosis by SDF-1 in INS-1 and MIN-6 cells is reversed by knock-down of betacatenin. A. Western blot analysis of extracts from MIN6 cells that were mock treated, thapsigargin-treated (1 μM) and/or siRNA transfected (0.25 mg/ml), by using anti-serum against cleaved caspase-3 (upper panel), anti-serum against cleaved PARP (middle panel) and actin antibody (lower panel) as a loading control. B. Caspase-3 activity (fluorescence/mg proteinx105) of INS-1 or MIN6 cells mock treated, thapsigargin-treated (1 μM) and/or siRNA transfected (0.25 mg/ml). Results are presented as mean±SD for n=3 independent experiments, All values are relative to the first (leftmost) bar. […] Quantification of apoptotic cells is expressed as percent apoptotic cells relative to the total cells counted (lower left panel). […]
Thapsigargin-induced apoptosis in INS-1 or MIN6 cells For western immuoblot assay (Cell Signaling), MIN6 cells were seeded into 6 well plates then treated with 1 microM thapsigargin or DMSO control for 16 h and apoptotic activity was measured by Western immunoblotting using antisera specific for cleaved (active) caspase-3 (Cell signaling #9661) and cleaved (active) PARP (Cell signaling #9548). For caspase-3 assay, INS-1 cells or MIN-6 cells in 24-well plates were treated with 1 microM thapsigargin or DMSO for 16 hand caspase-3 activity was determined (Molecular Probes). […]

[2] = system: prohormone convertase PC1/3; test: PC1/3 expression by QPCR in alphaTC-1 cells; details: by one hour after addition of SDF-1, QPCR
From the text: FIG. 19. […] Determined by QPCR. High priority experiments planned are to examine PC1/3 protein expression in isolated mouse islets using Western immunoblot, immunocytochemistry, and bioassays for active PC 1/3.

[3] = system: INS-1 cells; test: ATP-lite cell viability assay, serum deprivation, SDF-1 with AMD3100; details: serum-free medium, SDF-1 2 nM, day 6
Protocol: ATP lite cell viability assay: INS-1 cells were plated in 96 well plates. SDF-1 (2 nM) and AMD3100 were added at day 0, 2, 4 and cell viability was measured at day 6 using relative light units (RLU) as compared to control. N=6.
INS-1 cells were plated in 96 well plates in control medium (no serum) or a medium containing 2% serum. SDF-1 (2 nM) and SDF-1 (2 nM) along with various concentrations of AMD3100 (2 uM, 0.4 uM, 80 nM, 16 nM) were added to different cell groups incubated in serum-free medium at days 0, 2, 4, and cell viability was measured at day 6 using relative light units (RLU) as compared to control.

SDF-1: small, secreted 70 amino acid peptide chemokine, SEQ ID NO: 1, ligand of CXCR4
effect on thapsigargin-increased levels of cleaved caspase-3 and PARP [1]: inhibited
PC1/3 expression [2]: induces prohormone convertase PC1/3 expression
protection of cell viability in serum deprivation [3]: protects INS-1 cells from dying
